Several values for one entry are separate records, joined by “and”; a condition that tells them apart may be missing. Identical values can stand only once. Inconclusive results and toxic doses are left out. Rule as the data show it: active = T/C of 150% or more; inactive = T/C below 125%.
Tested on: L1210 leukemia ip in BDF1 mice, survival T/C
Assay: NCI In Vivo Anticancer Drug Screen. Data for tumor model L1210 Leukemia (intraperitoneal) in B6D2F1 (BDF1) mice
Conditions: endpoint: mean survival time, higher = longer survival
Method in brief: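 Transplantable tumor model; survival measured in treated vs vehicle control mice. Value = treated/control.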

[1] = dose: 100.0 mg/kg/injection, schedule: Q04DX003 (ip), vehicle: Klucel (hydroxypropylcellulose) (HPC)
[2] = dose: 200.0 mg/kg/injection, schedule: Q04DX003 (ip), vehicle: Klucel (hydroxypropylcellulose) (HPC)
[3] = dose: 400.0 mg/kg/injection, schedule: Q04DX003 (ip), vehicle: Klucel (hydroxypropylcellulose) (HPC)
[4] = dose: 100.0 mg/kg/injection, schedule: Q01DX001 (ip), vehicle: saline
[5] = dose: 200.0 mg/kg/injection, schedule: Q01DX001 (ip), vehicle: saline
[6] = dose: 400.0 mg/kg/injection, schedule: Q01DX001 (ip), vehicle: saline
[7] = dose: 200.0 mg/kg/injection, schedule: Q01DX009 (ip), vehicle: saline with Tween-80
[8] = dose: 400.0 mg/kg/injection, schedule: Q01DX009 (ip), vehicle: saline with Tween-80
[9] = dose: 100.0 mg/kg/injection, schedule: Q04DX003 (ip), vehicle: saline
[10] = dose: 100.0 mg/kg/injection, schedule: Q01DX009 (ip), vehicle: saline
[11] = dose: 100.0 mg/kg/injection, schedule: Q01DX009 (ip), vehicle: Klucel (hydroxypropylcellulose) (HPC)
[12] = dose: 200.0 mg/kg/injection, schedule: Q01DX009 (ip), vehicle: Klucel (hydroxypropylcellulose) (HPC)
[13] = dose: 400.0 mg/kg/injection, schedule: Q01DX009 (ip), vehicle: Klucel (hydroxypropylcellulose) (HPC)
[14] = dose: 100.0 mg/kg/injection, schedule: Q04DX002 (ip), vehicle: saline with Tween-80
[15] = dose: 200.0 mg/kg/injection, schedule: Q04DX002 (ip), vehicle: saline with Tween-80
[16] = dose: 400.0 mg/kg/injection, schedule: Q04DX002 (ip), vehicle: saline with Tween-80

Measured: T/C

CCNCC(=O)O
inactive: dose: 100.0 mg/kg/injection, schedule: Q04DX002 (ip), vehicle: saline 96 % of control | dose: 200.0 mg/kg/injection, schedule: Q04DX002 (ip), vehicle: saline 101 % of control | dose: 400.0 mg/kg/injection, schedule: Q04DX002 (ip), vehicle: saline 104 % of control

CN(C)c1ccc2c(c1)C(=NO)c1cc(N(C)C)ccc1-2
inactive: [1] 104 % of control | [2] 96 % of control | [3] 91 % of control

Cc1nc(N)nc2c1CCC(O)S2 (centres undefined)
inactive: dose: 50.0 mg/kg/injection, schedule: Q01DX001 (ip), vehicle: Klucel (hydroxypropylcellulose) (HPC) 89 % of control | dose: 200.0 mg/kg/injection, schedule: Q01DX001 (ip), vehicle: Klucel (hydroxypropylcellulose) (HPC) 86 % of control

CC(C)OC(=O)C(C)OC(=O)OCCOCCOC(=O)OC(C)C(=O)OC(C)C (centres undefined)
inactive: [4] 96 % of control | [5] 100 % of control | [6] 100 % of control

COc1cccc(OC)c1OC(=O)Nc1cccc(SC)c1
inactive: [7] 91 % of control | [8] 95 % of control

O=S(=O)(CC(I)c1ccccc1)c1ccccc1 (centres undefined)
inactive: [9] 105 % of control | dose: 200.0 mg/kg/injection, schedule: Q04DX003 (ip), vehicle: saline 94 % of control | dose: 400.0 mg/kg/injection, schedule: Q04DX003 (ip), vehicle: saline 92 % of control

CSc1ccccc1NC(=O)NCCCl
inactive: [10] 100 % of control | dose: 200.0 mg/kg/injection, schedule: Q01DX009 (ip), vehicle: saline 98 % of control

O=C1CSC(c2ccccc2)N1 (centres undefined)
inactive: dose: 44.0 mg/kg/injection, schedule: Q04DX003 (ip), vehicle: Klucel (hydroxypropylcellulose) (HPC) 94 % of control and 103 % of control | dose: 67.0 mg/kg/injection, schedule: Q04DX003 (ip), vehicle: Klucel (hydroxypropylcellulose) (HPC) 98 % of control and 100 % of control | [11] 98 % of control | [1] 98 % of control and 100 % of control | dose: 150.0 mg/kg/injection, schedule: Q04DX003 (ip), vehicle: Klucel (hydroxypropylcellulose) (HPC) 98 % of control and 109 % of control | [12] 98 % of control | [2] 100 % of control | [13] 95 % of control | [3] 105 % of control

CCOC(=O)C(=CC(CC)(C(=O)OCC)C(=O)OCC)C(=O)OCC
inactive: [4] 101 % of control | [5] 97 % of control | [6] 95 % of control

C(=Nc1ccc(N=Cc2ccco2)cc1)c1ccco1
inactive: dose: 87.5 mg/kg/injection, schedule: Q01DX009 (ip), vehicle: Klucel (hydroxypropylcellulose) (HPC) 93 % of control | dose: 175.0 mg/kg/injection, schedule: Q01DX009 (ip), vehicle: Klucel (hydroxypropylcellulose) (HPC) 100 % of control | dose: 350.0 mg/kg/injection, schedule: Q01DX009 (ip), vehicle: Klucel (hydroxypropylcellulose) (HPC) 97 % of control

O=C(O)C(Cl)C(C(=O)O)c1ccccc1 (centres undefined)
inactive: [14] 101 % of control | [15] 93 % of control | [16] 93 % of control

NC(=O)C(O)(C(F)(F)F)C(F)(F)F
inactive: dose: 1.25 mg/kg/injection, schedule: Q01DX009 (ip), vehicle: saline 97 % of control | dose: 2.5 mg/kg/injection, schedule: Q01DX009 (ip), vehicle: saline 111 % of control | dose: 5.0 mg/kg/injection, schedule: Q01DX009 (ip), vehicle: saline 95 % of control | dose: 5.0 mg/kg/injection, schedule: Q04DX003 (ip), vehicle: saline 97 % of control | dose: 10.0 mg/kg/injection, schedule: Q01DX001 (ip), vehicle: saline 102 % of control | dose: 10.0 mg/kg/injection, schedule: Q04DX003 (ip), vehicle: saline 100 % of control | dose: 20.0 mg/kg/injection, schedule: Q01DX001 (ip), vehicle: saline 94 % of control

CC(=O)/C=C/c1ccc(O)cc1
inactive: [11] 98 % of control | [12] 96 % of control | [13] 100 % of control

CC(C)(C)OC(=O)NC(Cc1ccccc1)C(=O)O (centres undefined)
inactive: [4] 100 % of control | [5] 94 % of control | [6] 93 % of control

COc1ccc(NC(=O)Nc2cccc(Cl)c2C)c(OC)c1
inactive: dose: 100.0 mg/kg/injection, schedule: Q01DX001 (ip), vehicle: saline with Tween-80 98 % of control | dose: 100.0 mg/kg/injection, schedule: Q01DX009 (ip), vehicle: saline with Tween-80 93 % of control and 89 % of control | [14] 93 % of control and 92 % of control | dose: 100.0 mg/kg/injection, schedule: Q04DX003 (ip), vehicle: saline with Tween-80 86 % of control | dose: 200.0 mg/kg/injection, schedule: Q01DX001 (ip), vehicle: saline with Tween-80 102 % of control | [7] 94 % of control and 86 % of control | [15] 104 % of control and 90 % of control | dose: 200.0 mg/kg/injection, schedule: Q04DX003 (ip), vehicle: saline with Tween-80 86 % of control | dose: 400.0 mg/kg/injection, schedule: Q01DX001 (ip), vehicle: saline with Tween-80 100 % of control | [8] 97 % of control and 110 % of control | [16] 90 % of control | dose: 400.0 mg/kg/injection, schedule: Q04DX003 (ip), vehicle: saline with Tween-80 91 % of control

COc1ccccc1NC(=S)N1CCC(CCCC2CCN(C(=S)Nc3ccccc3OC)CC2)CC1
inactive: [11] 92 % of control | [1] 91 % of control | [12] 87 % of control | [2] 89 % of control | [3] 88 % of control

CCN(CC)CC(Cl)COc1ccccc1C (centres undefined)
inactive: [4] 91 % of control | [5] 94 % of control

COC1=C(c2ccccc2)C(=O)CCc2ccccc21
inactive: [1] 97 % of control | [2] 106 % of control | [3] 97 % of control

Cc1cc(=O)[nH]c(=O)n1C1OC(CO)C(O)C1O (centres undefined)
inactive: [4] 108 % of control | [5] 102 % of control | [6] 98 % of control

CCC[CH2][Sn]1([CH2]CCC)[O]OC(c2ccc(C)cc2)[O]1 (centres undefined)
inactive: dose: 12.5 mg/kg/injection, schedule: Q01DX009 (ip), vehicle: Klucel (hydroxypropylcellulose) (HPC) 101 % of control | dose: 12.5 mg/kg/injection, schedule: Q04DX002 (ip), vehicle: Klucel (hydroxypropylcellulose) (HPC) 94 % of control | dose: 25.0 mg/kg/injection, schedule: Q01DX009 (ip), vehicle: Klucel (hydroxypropylcellulose) (HPC) 119 % of control | dose: 25.0 mg/kg/injection, schedule: Q04DX002 (ip), vehicle: Klucel (hydroxypropylcellulose) (HPC) 86 % of control

OCC1CCN1C(c1ccccc1)c1ccccc1 (centres undefined)
inactive: [14] 93 % of control | [15] 86 % of control

O=C(OCCN1CCCC1)C(c1ccccc1)C1(O)CCCC1 (centres undefined)
inactive: dose: 25.0 mg/kg/injection, schedule: Q01DX009 (ip), vehicle: saline 103 % of control | dose: 25.0 mg/kg/injection, schedule: Q04DX003 (ip), vehicle: saline 104 % of control | dose: 50.0 mg/kg/injection, schedule: Q01DX009 (ip), vehicle: saline 102 % of control | dose: 50.0 mg/kg/injection, schedule: Q04DX003 (ip), vehicle: saline 101 % of control | [10] 117 % of control | [9] 96 % of control and 97 % of control

C[n+]1cccc(CNC(=O)COc2ccc(Cl)c(Cl)c2)c1
inactive: dose: 25.0 mg/kg/injection, schedule: Q01DX001 (ip), vehicle: saline 106 % of control | dose: 50.0 mg/kg/injection, schedule: Q01DX001 (ip), vehicle: saline 103 % of control | [4] 97 % of control and 109 % of control
